Assay results reported in patent US7714105B2, “Use of fragments of oxytocin for the preparation of a pharmaceutical composition in order to create eustasis” (priority 2001, dated 2010).
Ends that are not written are not given here.

Tests used:
Assay type in all cases: in vivo, rat
male Sprague-Dawley rats [1] = assay: Locomotor activity observations in open-field arena; conditions: 1 mg/kg subcutaneously for five consecutive days, studied three days after end of treatment, vs saline control
Protocol: (§1) Animals. Eight week-old male Sprague-Dawley rats (280-300 g) were obtained from B&K Universal AB, Sollentuna, Sweden.
(§2) Experimental procedure. SEQ ID NO: 5 was dissolved in physiological saline (1 mg/ml) and administered subcutaneously to six rats at a dose of 1 mg/kg for five consecutive days. Six rats received physiological saline only as a control. Two days after the last treatment, the rats were exposed to blood pressure determination with the cuff technique. The locomotor behaviour was studied three days after the end of the treatment. The next day the animals were decapitated and blood was collected.
(§3) Statistics. The results are presented as means ±SD. Statistical analysis was performed by means of 2-way ANOVA followed by Bonferroni's test for post hoc comparison. A Students t-test was performed. p-values of 0.05 or less were regarded as statistically significant.
Two identical frames of photocells were placed at two levels, 40 and 125 mm above the floor, respectively. The open-field was enclosed in a ventilated, sound-attenuating box with a Perspex top. Measurements were made in the dark and performed between 0.900-16.00 h.
The number of photocell beam interruptions were collected on an IBM-compatible PC computer allowing the registration of locomotor activity (all interruptions of photobeams at the lower level) and rearing (all interruptions of photobeams at the upper level). The data were subject to a square root transformation. For further details on the apparatus and the computer software used, including a schematic drawing of the equipment, see Ericson, E., Samuelsson, J., and Ahlenius, S. (1991). Photocell measurements of rat motor activity: A contribution to sensitivity and variation in behavioral observations. J Pharmacol Meth 25, 111-122. Furthermore, the peripheral activity was measured. By peripheral activity is meant that the animals are located in the corners of the arena. When the animals are frightened, they have a higher tendency to be located in the corners ie have a high peripheral activity. […]

Oxytocin = assay: Plasma oxytocin determination by radioimmunoassay; conditions: 1 mg/kg s.c. for five consecutive days, trunk blood four days after end of treatment, mean ± SD, in pmol/L
Protocol: as §1, §2, §3
Trunk blood was collected in ice-chilled tubes, containing heparin (10 IU/ml) (Pharmacia-Upjohn, Stockholm, Sweden) and aprotinin (500 IU/ml) (Trasylol, Bayer, Germany). […]
Oxytocin was measured with a specific radioimmunoassay developed in this laboratory (Stock, S., and Uvnäs-Moberg, K. (1988). Increased plasma levels of oxytocin in response to stimulation of the sciatic and vagal nerves and in response to touch and pinch in anaesthetized rats. Acta Physiol Scand 132, 29-34.). […]

Gastrin = assay: Plasma gastrin determination by immunoassay; conditions: 1 mg/kg s.c. for five consecutive days, trunk blood four days after end of treatment, mean ± SD, in pmol/L
Protocol: as §1, §2, §3
(§4) Trunk blood was collected in ice-chilled tubes, containing heparin (10 IU/ml) (Pharmacia-Upjohn, Stockholm, Sweden) and aprotinin (500 IU/ml) (Trasylol, Bayer, Germany). The blood samples were centrifuged and plasma was removed and frozen (−20° C.).
Gastrin was immunoassayed as described by Smedh, U., and Uvnäs-Moberg, K. (1994) Intracerebroventricularly administered corticotropin-releasing factor releases somatostatin through a colinergic, vagal pathway in freely fed rats. Acta Physiol Scand 151, 241-247. […]

CCK = assay: Plasma cholecystokinin (CCK) determination by immunoassay; conditions: 1 mg/kg s.c. for five consecutive days, trunk blood four days after end of treatment, mean ± SD, in pmol/L
Protocol: as §1, §2, §3, §4
CCK was immunoassayed as described by Smedh and Uvnäs Moberg, supra. Plasma samples were purified with reversed-phase chromatography using C18 Waters SEP PAK cartridges. […]

male Sprague-Dawley rats [2] = assay: Measurement of blood pressure with tail cuff on conscious animals; conditions: 1 mg/kg s.c. for five consecutive days, two days after last treatment
Protocol: as §1, §2, §3
Blood pressure and heart rate were measured on conscious animals by placing a cuff (Kent RTBP-002, Somedic Sales, Farsta, Sweden) on the base of the tail. The cuff was connected to a Grass 7P8 sphygmanometer and a Grass 7P8DC amplifier with a printer. The rats were habituated to the entire test procedure for 2-3 weeks before the procedure started.

Which “amount of peripheral activity” value (male Sprague-Dawley rats [1]) does the source give for “Cys-Pro-Leu-Gly-NH2 (CPLG-NH2) [SEQ ID NO: 5]” here?
The value was “decreased”.

And the amount of rearing (male Sprague-Dawley rats [1])?
The amount of rearing was “significantly decreased”.

What about the locomotor activity (male Sprague-Dawley rats [1]) of the same substance?
Its locomotor activity is “significantly decreased”.

What about the “Hormone levels in hormone treated rats (N = 6): Oxytocin” value (Oxytocin) of the same substance?
Its value is 29.7 ± 7.2.

What about the “Hormone levels in hormone treated rats (N = 6): Gastrin” value (Gastrin) of the same substance?
Its value is 85 ± 19.3.

And the “Hormone levels in hormone treated rats (N = 6): CCK” value (CCK)?
The value was 8.4 ± 3.5.

And the “Diastolic blood pressure, value in hormone treated rats (N = 6)” value (male Sprague-Dawley rats [2]; mean ± SD)?
The value was 87.3 ± 18.9.

And the “Systolic blood pressure, value in hormone treated rats (N = 6)” value (male Sprague-Dawley rats [2]; mean ± SD)?
The value was 116 ± 9.1.

What about the blood pressure (male Sprague-Dawley rats [2]; vs saline control) of the same substance?
The blood pressure was “significantly decreased”.
